Laboratory results reported in patent US12173088B2, “Anti-microbial peptides” (priority 2018, dated 2024).
In brackets after ≈: the same amount, converted by molar mass. Where two headings read alike, the source gives them in different places. Peptide text beside a SMILES is read from it.

Assays:
K. pneumoniae ATCC 13883 = type: cell-based, Klebsiella pneumoniae
Procedure: (§1) The antibacterial activity of peptides was evaluated using a standard broth microdilution protocol with minor modifications as described (Mishra, et al. (2012) J. Am. Chem. Soc., 134:12426-12429). In brief, logarithmic phase bacterial cultures (i.e., optical density at 600 nm≈0.5) were diluted to OD600 0.001 and partitioned into a 96-well polystyrene microplate at 90 μL per well. After treatment with 10 μL of peptide solutions two fold diluted to various concentrations, microplates were incubated at 37° C. overnight and read on a ChroMate® 4300 Microplate Reader at 630 nm (GMI, Ramsey, MN). […] To study the influence of medium conditions on the antimicrobial activity of peptides against S. aureus USA300, up to 200 mM sodium chloride (NaCl), 2 mM of calcium chloride, 5-10% of human serum, mouse plasma, fluid, or supernatants of tissue homogenates were included into the assays.
(§2) The bacterial strains used include the Gram-positive bacteria methicillin-resistant Staphylococcus aureus USA300, Enterococcus faecium V286-17 (VRE), S. aureus M838-17 (MRSA) and Gram-negative bacteria E. coli E423-17, E416-7 (ampC), P. aeruginosa E411-17, PA01, K. pneumoniae E406-17, ATCC13883, and A. baumannii B26-16. Bacteria were cultivated in tryptic soy broth (TSB) from BD Bioscience.
(§3) The antibacterial activity of peptides was evaluated using a standard broth microdilution protocol with minor modifications (Mishra, et al. (2017) Acta Biomater., 49:316-328). In brief, logarithmic phase bacterial cultures (i.e., optical density at 600 nm≈0.5) were diluted to 0.001 OD and aliquoted 90 μL per well into a 96-well polystyrene microplate. Added 10 μL peptides per well with various concentrations, plates were incubated at 37° C., overnight. Post incubation the plates are read at 630 nm using a ChroMate® Microplate Reader (GMI). […] To study the influence of medium conditions on the antimicrobial activity of peptides against S. aureus USA300 at different pHs (6.8, 7.2, and 8.0), 150 mM sodium chloride (NaCl), 5-10% of human serum, mouse plasma, and peritoneal fluid were included into the assays.

[1] = tested on: human red blood cells (hRBCs); experiment: Hemolytic assay; type: cell-based
Procedure: Briefly, human red blood cells (hRBCs) were washed three times with phosphate buffer saline (PBS) and diluted to a 2% solution (v/v). After peptide treatment, incubation at 37° C. for one hour, and centrifugation at 5000 rpm for 10 minutes, aliquots of the supernatant were carefully transferred to a fresh 96-well microplate. The amount of hemoglobin released was measured at 545 nm. The percent lysis was calculated by assuming 100% release when human blood cells were treated with 2% Triton™ X-100, and 0% release when incubated with PBS buffer. The peptide concentration that caused 50% lysis of hRBCs is defined as HL50. The cell selectivity index (CSI) was calculated as the ratio between HL50 and MIC of the corresponding peptide against a select pathogenic species.
Hemolytic assays of peptides were performed as described (Mishra, et al. (2017) Acta Biomater., 49:316-328). Briefly, human red blood cells (hRBCs) obtained from UNMC Blood Bank. The blood washed 3× with isotonic saline (0.9% NaCl) and diluted to 2% blood cells (v/v). Peptide horine and verine at various concentrations were added into the 2% blood cells and incubated at 37° C. for 1 hour. Post incubation the plates were spun at 2000 rpm for 10 minutes, aliquots of the supernatant were carefully transferred to a fresh 96-well microplate. The amount of cells lysed is proportional to the hemoglobin released and measured at 545 nm using a ChroMate® microplate reader. The percent lysis was calculated by assuming 100% release when human blood cells were treated with 1% Triton™ X-100, and 0% release when incubated with PBS. The peptide concentration that caused 50% lysis of hRBCs is defined as HL50.

P. aeruginosa PAO1 = type: cell-based, Pseudomonas aeruginosa
Procedure: as §1, §2, §3

S. aureus USA300 = experiment: microbe, parasite or virus in culture; type: cell-based, Staphylococcus aureus
Excerpt: The bacterial strains used include the Gram-positive strains Staphylococcus aureus USA300 LAC, S. epidermidis 1457, and Bacillus subtilis 168, as well as the Gram-negative isolates Escherichia coli K12 and Acinetobacter baumannii B2367-12. Additional, drug resistance strains include Gram-positive Enterococcus faecium V286-17 (VRE) and S. aureus M838-17 (MRSA) and Gram-negative E. coli E423-17, E. coli E416-17 (ampC), and P. aeruginosa E411-17. Bacteria were cultivated in tryptic soy broth (TSB) (BD Bioscience, MD).
as §1, §2, §3

E. coli ATCC 25922 = type: cell-based, Escherichia coli
Procedure: as §1, §3

MIC K. pneumoniae (K. pneumoniae ATCC 13883; ATCC 13883) [µM]	MIC P. aeruginosa PAO1 (P. aeruginosa PAO1; PAO1) [µM]	MIC S. aureus USA 300 (S. aureus USA300; USA300) [µM]	MIC against S. aureus (S. aureus USA300; USA300) [µM]	MIC E. coli ATCC 25922 (E. coli ATCC 25922; ATCC 25922) [µM]	MIC K. pneumonia ATCC 13883 (K. pneumoniae ATCC 13883; ATCC 13883) [µM]	Structure (SMILES)	HL50 [1] [µM]	Activity against Pseudomonas aeruginosa PAO1 (P. aeruginosa PAO1)	MIC K. pneumoniae (K. pneumoniae ATCC 13883; Table 2, quantified by UV) [µM]	HL50 ([1]; Table 2, lysis of 50% hRBCs (2% v/v)) [µM]	MIC P. aeruginosa PAO1 (P. aeruginosa PAO1; Table 2, quantified by UV) [µM]	MIC S. aureus USA 300 (S. aureus USA300; Table 2, peptides amidated, quantified by UV) [µM]	MIC E. coli ATCC 25922 (E. coli ATCC 25922; Table 2, quantified by UV) [µM]
>25	>25	25 (≈ 31.3 µg/mL)	12.5 to 25	25 (≈ 31.3 µg/mL)	–	CC(C)C[C@H](NC(=O)[C@H](CC(C)C)NC(=O)[C@H](CCCCN)NC(=O)CNC(=O)[C@H](CC(C)C)NC(=O)[C@H](C)NC(=O)[C@H](CCCCN)NC(=O)[C@H](CC(C)C)NC(=O)[C@H](C)NC(=O)[C@H](CO)NC(=O)[C@H](CC(C)C)NC(=O)[C@H](C)NC(=O)CN)C(N)=O [DFT528, GALSALKALGKLL] (H-GALSALKALGKLL-NH2; N-terminus assumed)	>50	–	–	–	–	–	–
–	>25	>25	–	>25	>25	CC(C)C[C@H](NC(=O)[C@H](CC(C)C)NC(=O)[C@H](CCCCN)NC(=O)CNC(=O)[C@H](CC(C)C)NC(=O)[C@H](CO)NC(=O)[C@H](CC(C)C)NC(=O)[C@H](CO)NC(=O)[C@H](CC(C)C)NC(=O)[C@H](CC(C)C)NC(=O)CN)C(N)=O [DFT524, GLLSL-SL-GKLL] (H-GLLSLSLGKLL-NH2; N-terminus and C-terminus assumed)	>300	–	–	–	–	–	–
3.1 (≈ 4.02 µg/mL)	12.5 (≈ 16.2 µg/mL)	0.78 (≈ 1.01 µg/mL)	–	3.1 (≈ 4.02 µg/mL)	–	CC(C)C[C@H](NC(=O)[C@H](CC(C)C)NC(=O)[C@H](CCCCN)NC(=O)CNC(=O)[C@H](C)NC(=O)[C@H](CC(C)C)NC(=O)[C@H](CO)NC(=O)[C@H](CC(C)C)NC(=O)[C@H](CC(C)C)NC(=O)[C@H](CO)NC(=O)[C@H](CC(C)C)NC(=O)[C@H](CC(C)C)NC(=O)CN)C(N)=O [DFT511, GLLSLLSLAGKLL] (H-GLLSLLSLAGKLL-NH2; N-terminus assumed)	14	active	–	–	–	–	–
–	–	–	–	–	–	CC(C)C[C@H](NC(=O)CN)C(=O)N[C@@H](CC(C)C)C(=O)N[C@@H](CO)C(=O)N[C@@H](CC(C)C)C(=O)N[C@@H](CC(C)C)C(=O)N[C@@H](CO)C(=O)N[C@@H](CC(C)C)C(=O)N[C@@H](CC(C)C)C(=O)NCC(=O)N[C@@H](CCCCN)C(=O)N[C@@H](CC(C)C)C(=O)N[C@@H](C)C(N)=O [DFT513, GLLSLLSLLGKLA] (H-GLLSLLSLLGKLA-NH2; N-terminus assumed)	–	–	12.5 to 25	<3.1	>25	1.56 (≈ 2.02 µg/mL)	1.5 to 3.1
3.1 (≈ 4.02 µg/mL)	>25	0.78 (≈ 1.01 µg/mL)	–	3.1 (≈ 4.02 µg/mL)	–	CC(C)C[C@H](NC(=O)[C@H](CC(C)C)NC(=O)[C@H](CCCCN)NC(=O)CNC(=O)[C@H](CC(C)C)NC(=O)[C@H](CC(C)C)NC(=O)[C@H](CO)NC(=O)[C@H](CC(C)C)NC(=O)[C@H](C)NC(=O)[C@H](CO)NC(=O)[C@H](CC(C)C)NC(=O)[C@H](CC(C)C)NC(=O)CN)C(N)=O [DFT508, GLLSALSLLGKLL] (H-GLLSALSLLGKLL-NH2; N-terminus assumed)	6	–	–	–	–	–	–
–	6.2 (≈ 7.88 µg/mL)	–	–	–	25 (≈ 31.8 µg/mL)	CC[C@H](C)[C@H](NC(=O)[C@H](CCCNC(=N)N)NC(=O)[C@H](CCCNC(=N)N)NC(=O)[C@H](CC(C)C)NC(=O)[C@H](Cc1c[nH]c2ccccc12)NC(=O)[C@H](CCCNC(=N)N)NC(=O)[C@@H](N)Cc1c[nH]c2ccccc12)C(=O)N[C@@H](Cc1c[nH]c2ccccc12)C(N)=O [WW301, WRWLRRIW] (H-WRWLRRIW-NH2; N-terminus and C-terminus assumed)	100	–	–	–	–	–	–
–	12.5 (≈ 15.9 µg/mL)	–	–	–	>25	CC[C@H](C)[C@H](NC(=O)[C@H](CCCNC(=N)N)NC(=O)[C@H](CCCNC(=N)N)NC(=O)[C@H](CC(C)C)NC(=O)[C@H](Cc1c[nH]c2ccccc12)NC(=O)[C@H](Cc1c[nH]c2ccccc12)NC(=O)[C@@H](N)Cc1c[nH]c2ccccc12)C(=O)N[C@@H](CCCNC(=N)N)C(N)=O [WW305, WWWLRRIR] (H-WWWLRRIR-NH2; N-terminus and C-terminus assumed)	>200	–	–	–	–	–	–
